The target in experiment [1] is T1, Inhibitor of nuclear factor kappa-B kinase subunit beta (Homo sapiens) (UniProt O14920).
T1 sequence (whole entry): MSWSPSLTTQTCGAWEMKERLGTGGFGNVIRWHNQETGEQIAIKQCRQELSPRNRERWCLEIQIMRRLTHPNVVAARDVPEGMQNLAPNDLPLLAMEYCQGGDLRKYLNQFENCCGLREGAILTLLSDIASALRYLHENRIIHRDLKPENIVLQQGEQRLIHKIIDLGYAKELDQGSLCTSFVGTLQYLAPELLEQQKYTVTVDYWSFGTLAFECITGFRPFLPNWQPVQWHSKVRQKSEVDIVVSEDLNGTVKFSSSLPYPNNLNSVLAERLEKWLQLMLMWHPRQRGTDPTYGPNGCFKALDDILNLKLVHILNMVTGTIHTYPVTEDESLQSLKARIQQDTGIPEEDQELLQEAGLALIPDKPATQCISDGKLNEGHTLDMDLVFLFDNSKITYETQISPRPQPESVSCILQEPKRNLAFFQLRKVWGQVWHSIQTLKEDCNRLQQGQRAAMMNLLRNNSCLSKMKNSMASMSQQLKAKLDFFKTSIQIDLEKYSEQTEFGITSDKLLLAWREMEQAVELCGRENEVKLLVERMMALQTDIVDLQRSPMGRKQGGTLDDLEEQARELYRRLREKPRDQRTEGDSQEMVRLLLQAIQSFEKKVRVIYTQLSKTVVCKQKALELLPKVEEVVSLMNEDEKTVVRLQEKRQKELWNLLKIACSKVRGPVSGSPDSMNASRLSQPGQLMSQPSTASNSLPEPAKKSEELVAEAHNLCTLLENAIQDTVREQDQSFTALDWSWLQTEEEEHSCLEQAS
Put plainly: Inhibition of IKK-beta expressed in Escherichia coli or baculovirus-infected insect cells at 667 uM by TR-FRET assay. On the technique in general: Time-resolved FRET reads energy transfer from a long-lived donor to a nearby acceptor.

Experiment [2] deals with T2, Serine/threonine-protein kinase Sgk1 (Homo sapiens) (UniProt O00141).
T2 sequence (whole entry): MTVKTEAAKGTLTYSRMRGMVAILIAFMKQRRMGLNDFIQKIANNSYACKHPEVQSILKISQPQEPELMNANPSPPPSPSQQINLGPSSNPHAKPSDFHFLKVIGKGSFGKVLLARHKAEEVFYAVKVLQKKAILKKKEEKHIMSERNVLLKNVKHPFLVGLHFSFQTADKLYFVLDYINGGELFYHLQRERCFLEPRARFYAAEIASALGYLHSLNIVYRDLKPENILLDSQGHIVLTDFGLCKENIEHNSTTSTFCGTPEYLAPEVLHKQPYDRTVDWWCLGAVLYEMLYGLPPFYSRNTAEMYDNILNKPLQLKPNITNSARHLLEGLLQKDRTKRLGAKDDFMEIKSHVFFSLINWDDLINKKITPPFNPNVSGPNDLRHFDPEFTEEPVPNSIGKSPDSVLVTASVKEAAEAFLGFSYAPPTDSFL
Put plainly: Inhibition of SGK1 expressed in Escherichia coli or baculovirus-infected insect cells at 400 uM by IMAP assay.

For experiment [3], the target named is Tyrosine-protein kinase Fes/Fps (Homo sapiens) (UniProt P07332). The experiment in a line: Inhibition of FES expressed in Escherichia coli or baculovirus-infected insect cells using ATP as substrate at 400 uM by fluorescence polarization assay. (Fluorescence polarisation rises when a labelled molecule tumbles more slowly, as on binding a larger partner.)
Experiment [4] addresses Focal adhesion kinase 1 (Homo sapiens) (UniProt Q05397). The experiment in a line: Inhibition of FAK expressed in Escherichia coli or baculovirus-infected insect cells at 400 uM by TR-FRET assay.
Experiment [5] deals with Aurora kinase B (Homo sapiens) (UniProt Q96GD4). The experiment in a line: Inhibition of AurB expressed in Escherichia coli or baculovirus-infected insect cells at 400 uM by IMAP assay.
Chain of Aurora kinase B (Homo sapiens) (Q96GD4 whole entry): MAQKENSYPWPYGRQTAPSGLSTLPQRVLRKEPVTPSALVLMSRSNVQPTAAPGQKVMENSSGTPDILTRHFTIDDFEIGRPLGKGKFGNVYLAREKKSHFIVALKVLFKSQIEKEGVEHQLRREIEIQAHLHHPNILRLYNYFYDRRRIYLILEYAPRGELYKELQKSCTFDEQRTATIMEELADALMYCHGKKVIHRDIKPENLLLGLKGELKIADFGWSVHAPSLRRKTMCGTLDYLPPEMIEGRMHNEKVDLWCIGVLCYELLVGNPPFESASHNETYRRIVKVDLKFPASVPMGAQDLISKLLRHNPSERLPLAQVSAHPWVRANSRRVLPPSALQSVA
The target of experiment [6] is Insulin-like growth factor 1 receptor (Homo sapiens) (UniProt P08069). Put plainly: Inhibition of IGF1R expressed in Escherichia coli or baculovirus-infected insect cells at 400 uM by TR-FRET assay.
Chain of Insulin-like growth factor 1 receptor (Homo sapiens) (P08069 31-736 limits assumed): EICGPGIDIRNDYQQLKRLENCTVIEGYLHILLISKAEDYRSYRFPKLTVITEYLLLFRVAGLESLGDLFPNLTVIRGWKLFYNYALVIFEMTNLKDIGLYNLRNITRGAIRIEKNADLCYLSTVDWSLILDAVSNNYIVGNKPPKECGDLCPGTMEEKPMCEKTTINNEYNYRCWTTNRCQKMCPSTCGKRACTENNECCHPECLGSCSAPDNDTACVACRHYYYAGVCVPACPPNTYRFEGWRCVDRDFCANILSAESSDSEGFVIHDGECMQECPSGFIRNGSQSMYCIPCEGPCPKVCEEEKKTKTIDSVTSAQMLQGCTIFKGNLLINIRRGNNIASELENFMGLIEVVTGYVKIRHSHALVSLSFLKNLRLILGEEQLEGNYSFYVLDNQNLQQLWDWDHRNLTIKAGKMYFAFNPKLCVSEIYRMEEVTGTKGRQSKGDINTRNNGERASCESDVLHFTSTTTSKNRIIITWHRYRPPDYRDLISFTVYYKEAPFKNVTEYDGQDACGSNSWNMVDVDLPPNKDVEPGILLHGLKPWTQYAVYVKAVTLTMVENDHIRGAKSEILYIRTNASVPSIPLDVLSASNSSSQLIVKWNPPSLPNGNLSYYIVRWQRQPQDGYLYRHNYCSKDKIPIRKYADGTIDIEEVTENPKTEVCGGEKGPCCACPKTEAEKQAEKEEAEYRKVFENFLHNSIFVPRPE
Chain of Insulin-like growth factor 1 receptor (Homo sapiens) (P08069 741-1367 limits assumed): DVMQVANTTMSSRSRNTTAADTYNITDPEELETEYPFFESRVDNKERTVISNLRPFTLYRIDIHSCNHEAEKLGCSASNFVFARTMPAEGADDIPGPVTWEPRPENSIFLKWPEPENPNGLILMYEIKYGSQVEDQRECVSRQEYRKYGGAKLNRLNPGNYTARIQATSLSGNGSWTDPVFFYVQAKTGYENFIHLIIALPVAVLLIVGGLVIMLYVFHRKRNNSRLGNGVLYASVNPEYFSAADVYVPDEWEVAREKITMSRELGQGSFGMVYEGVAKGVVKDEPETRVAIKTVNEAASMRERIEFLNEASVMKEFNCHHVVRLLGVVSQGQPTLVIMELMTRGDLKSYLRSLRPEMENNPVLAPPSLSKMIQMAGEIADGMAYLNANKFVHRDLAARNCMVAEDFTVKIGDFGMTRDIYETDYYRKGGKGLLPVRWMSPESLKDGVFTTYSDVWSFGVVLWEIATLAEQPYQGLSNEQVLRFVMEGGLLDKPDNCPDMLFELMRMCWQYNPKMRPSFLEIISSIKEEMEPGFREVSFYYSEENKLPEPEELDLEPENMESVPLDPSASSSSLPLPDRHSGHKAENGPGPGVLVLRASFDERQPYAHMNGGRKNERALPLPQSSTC
In experiment [7] the target is RAC-beta serine/threonine-protein kinase (Homo sapiens) (UniProt P31751). The experiment in a line: Inhibition of AKT2 expressed in Escherichia coli or baculovirus-infected insect cells using gamma-[33P]ATP at 400 uM by scintillation proximity assay. For orientation: SPA uses beads or plates that emit light when radiolabelled molecules are held near them.
Chain of RAC-beta serine/threonine-protein kinase (Homo sapiens) (P31751 whole entry): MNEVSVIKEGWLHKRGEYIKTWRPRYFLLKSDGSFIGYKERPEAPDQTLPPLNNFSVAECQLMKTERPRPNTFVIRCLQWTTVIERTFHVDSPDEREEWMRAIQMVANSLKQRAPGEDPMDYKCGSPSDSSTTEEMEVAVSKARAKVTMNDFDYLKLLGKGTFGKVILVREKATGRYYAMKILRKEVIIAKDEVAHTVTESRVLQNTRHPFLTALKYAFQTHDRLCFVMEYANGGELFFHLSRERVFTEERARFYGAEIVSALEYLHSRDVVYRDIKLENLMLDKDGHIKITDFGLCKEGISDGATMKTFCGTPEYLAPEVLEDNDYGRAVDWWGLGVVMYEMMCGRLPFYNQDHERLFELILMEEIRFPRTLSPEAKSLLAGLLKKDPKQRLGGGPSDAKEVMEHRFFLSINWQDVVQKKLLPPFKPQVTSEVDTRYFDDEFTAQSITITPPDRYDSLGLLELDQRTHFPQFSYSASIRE
Experiment [8] addresses Epidermal growth factor receptor (Homo sapiens) (UniProt P00533). The experiment in a line: Inhibition of EGFR expressed in Escherichia coli or baculovirus-infected insect cells at 400 uM by TR-FRET assay.
Experiment [9] addresses Rho-associated protein kinase 1 (Homo sapiens) (UniProt Q13464). The experiment in a line: Inhibition of ROCK1 expressed in Escherichia coli or baculovirus-infected insect cells at 400 uM by IMAP assay.
The target of experiment [10] is Serine/threonine-protein kinase PAK 2 (Homo sapiens) (UniProt Q13177). The experiment in a line: Inhibition of PAK2 expressed in Escherichia coli or baculovirus-infected insect cells at 400 uM by IMAP assay.
Chain of Serine/threonine-protein kinase PAK 2 (Homo sapiens) (Q13177 whole entry): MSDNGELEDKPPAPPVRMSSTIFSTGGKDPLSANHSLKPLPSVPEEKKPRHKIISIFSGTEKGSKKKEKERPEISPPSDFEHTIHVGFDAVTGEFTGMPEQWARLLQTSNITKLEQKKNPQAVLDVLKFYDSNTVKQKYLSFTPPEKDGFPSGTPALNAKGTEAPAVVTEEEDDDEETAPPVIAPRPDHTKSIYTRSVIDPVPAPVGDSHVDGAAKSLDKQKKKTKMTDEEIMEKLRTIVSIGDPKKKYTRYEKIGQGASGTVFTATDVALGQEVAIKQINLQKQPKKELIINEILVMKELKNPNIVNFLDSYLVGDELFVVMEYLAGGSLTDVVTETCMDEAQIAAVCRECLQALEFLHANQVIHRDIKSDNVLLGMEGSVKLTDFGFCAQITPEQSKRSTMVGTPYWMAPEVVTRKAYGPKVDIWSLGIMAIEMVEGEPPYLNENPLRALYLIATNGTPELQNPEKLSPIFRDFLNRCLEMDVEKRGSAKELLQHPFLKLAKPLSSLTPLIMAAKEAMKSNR
The target in experiment [11] is Serine/threonine-protein kinase pim-1 (Homo sapiens) (UniProt P11309). Put plainly: Inhibition of PIM1 expressed in Escherichia coli or baculovirus-infected insect cells at 400 uM by IMAP assay.

Chain of Focal adhesion kinase 1 (Homo sapiens) (Q05397 2-1052 limits assumed): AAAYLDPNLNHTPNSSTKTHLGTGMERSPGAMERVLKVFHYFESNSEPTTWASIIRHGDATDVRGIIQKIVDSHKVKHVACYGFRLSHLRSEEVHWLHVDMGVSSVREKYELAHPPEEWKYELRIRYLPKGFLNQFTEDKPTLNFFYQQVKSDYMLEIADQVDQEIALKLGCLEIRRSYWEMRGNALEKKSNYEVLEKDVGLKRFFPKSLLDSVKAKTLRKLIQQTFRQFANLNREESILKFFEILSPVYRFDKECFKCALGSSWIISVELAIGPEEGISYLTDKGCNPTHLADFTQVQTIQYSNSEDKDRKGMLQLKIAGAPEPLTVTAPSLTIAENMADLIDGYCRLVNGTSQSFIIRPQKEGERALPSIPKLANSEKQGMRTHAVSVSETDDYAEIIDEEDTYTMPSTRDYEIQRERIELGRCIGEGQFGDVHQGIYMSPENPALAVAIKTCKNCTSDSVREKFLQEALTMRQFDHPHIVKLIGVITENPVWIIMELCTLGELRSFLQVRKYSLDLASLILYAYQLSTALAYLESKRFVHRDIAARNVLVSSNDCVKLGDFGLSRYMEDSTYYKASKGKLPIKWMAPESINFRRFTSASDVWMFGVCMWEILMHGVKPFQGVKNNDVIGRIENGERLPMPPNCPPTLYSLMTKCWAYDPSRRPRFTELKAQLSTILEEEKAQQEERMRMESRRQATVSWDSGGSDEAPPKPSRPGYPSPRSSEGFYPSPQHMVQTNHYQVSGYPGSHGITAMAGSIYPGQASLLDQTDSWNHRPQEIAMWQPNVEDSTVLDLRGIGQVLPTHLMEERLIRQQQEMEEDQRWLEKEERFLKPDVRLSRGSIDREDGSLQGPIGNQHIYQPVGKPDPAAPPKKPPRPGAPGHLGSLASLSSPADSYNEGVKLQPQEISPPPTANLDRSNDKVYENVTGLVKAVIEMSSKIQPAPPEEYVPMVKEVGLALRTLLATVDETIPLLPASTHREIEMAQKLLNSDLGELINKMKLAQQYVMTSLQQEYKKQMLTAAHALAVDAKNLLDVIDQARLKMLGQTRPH
Chain of Epidermal growth factor receptor (Homo sapiens) (P00533 whole entry): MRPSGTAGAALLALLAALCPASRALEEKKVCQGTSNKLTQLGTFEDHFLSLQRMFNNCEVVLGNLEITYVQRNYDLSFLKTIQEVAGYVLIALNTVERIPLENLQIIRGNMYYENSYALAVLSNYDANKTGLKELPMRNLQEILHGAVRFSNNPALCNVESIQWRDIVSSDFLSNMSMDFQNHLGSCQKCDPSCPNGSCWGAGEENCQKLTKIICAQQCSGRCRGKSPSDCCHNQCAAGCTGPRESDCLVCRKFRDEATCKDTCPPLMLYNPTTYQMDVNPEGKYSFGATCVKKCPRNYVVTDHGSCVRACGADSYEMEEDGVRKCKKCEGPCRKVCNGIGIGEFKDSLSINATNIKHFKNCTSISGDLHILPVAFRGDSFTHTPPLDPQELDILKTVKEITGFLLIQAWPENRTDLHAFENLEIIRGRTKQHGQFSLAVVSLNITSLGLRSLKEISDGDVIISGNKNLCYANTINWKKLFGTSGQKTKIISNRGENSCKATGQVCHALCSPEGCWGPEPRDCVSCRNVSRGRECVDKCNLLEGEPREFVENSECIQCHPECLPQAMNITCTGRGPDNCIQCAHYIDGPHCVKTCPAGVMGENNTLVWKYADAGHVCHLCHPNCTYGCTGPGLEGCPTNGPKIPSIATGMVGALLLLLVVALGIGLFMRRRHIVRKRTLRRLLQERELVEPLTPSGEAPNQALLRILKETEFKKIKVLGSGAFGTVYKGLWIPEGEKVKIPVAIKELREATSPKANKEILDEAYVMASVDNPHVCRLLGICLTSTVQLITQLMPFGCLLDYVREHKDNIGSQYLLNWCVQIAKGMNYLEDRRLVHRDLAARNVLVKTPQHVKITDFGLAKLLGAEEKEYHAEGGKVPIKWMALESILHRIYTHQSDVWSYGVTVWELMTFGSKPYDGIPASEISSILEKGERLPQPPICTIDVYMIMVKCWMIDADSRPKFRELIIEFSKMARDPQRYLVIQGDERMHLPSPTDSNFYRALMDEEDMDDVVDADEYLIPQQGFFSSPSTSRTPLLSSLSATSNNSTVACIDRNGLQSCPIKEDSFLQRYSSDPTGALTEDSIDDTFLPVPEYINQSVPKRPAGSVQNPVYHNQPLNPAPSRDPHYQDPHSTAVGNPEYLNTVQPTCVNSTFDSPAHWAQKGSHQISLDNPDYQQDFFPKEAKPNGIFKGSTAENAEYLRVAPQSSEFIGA

Turning to `c1ccc(Nc2ncccn2)cc1`, the inhibition in experiment [1] is 8%; in experiment [2], 21%; in [3], 35%; in experiment [4], 10%; in [5], 97%; in [6], 18%. Further, the inhibition in [7] worked out at 16%; in [8], 0%; in experiment [9], 10%; in experiment [10], 3%; in [11], 6%.
As for `Nc1[nH]nc2ccccc12`, the inhibition in [1] was 47%; in experiment [2], 97%; in experiment [3] it was 11%; in experiment [4] it was 13%; in [5], 98%; in experiment [6], 47%. The inhibition in [7] came out at 16%; in experiment [8], 0%; in [9] it was 65%; in experiment [10], 16%; in [11], 21%.

The term inhibition denotes the change of the read-out against control, counted positive when it falls. Low readings indicate little suppression, high ones strong suppression.
